Data as given in ChEMBL document CHEMBL4808206, “Novel Substituted 3,4-Dihydroquinazoline Derivatives for Treating Hepatitis B Virus Infection” (ACS Med Chem Lett, 2021).

Test system: Hepatitis B virus
Test: Antiviral activity against HBV infected in human HepDES19 cells assessed as reduction in HBV cccDNA production by measuring inhibition of HBeAg secretion incubated for 5 days by ELISA
Format: functional, organism-based
Details: HepDES19, 120 h

| IC50 [nM] | Structure (SMILES) |
| --- | --- |
| 50 | O=C(O)C1NC(c2ccc(N3CCCC3)nc2)=Nc2c(Cl)cccc21 (stereo unspecified) |
| 70 | NC(=O)C1NC(c2ccc(Br)cc2)=Nc2c(Cl)cccc21 (stereo unspecified) |

The next lines start with the compound.

| Structure (SMILES) | IC50 [nM] |
| --- | --- |
| CC1(C(=O)O)NC(c2ccc(Br)cc2)=Nc2c(Cl)cccc21 (stereo unspecified) | 130 |
| NC(=O)C1NC(c2cccc(Br)c2)=Nc2cc(C(F)(F)F)ccc21 (stereo unspecified) | 260 |
| COc1ccc2c(c1)CCN(C1=Nc3c(Cl)cccc3C(C)N1)C2=O (stereo unspecified) | 27 |
| COC(=O)C1NC(c2ccc(Br)cc2)=Nc2c(Cl)cccc21 (stereo unspecified) | 330 |
